Measurements from patent US9243037B2, “Gramicidin a mutants that function as antibiotics with improved solubility and reduced toxicity” (Trustees of Boston College, priority 2011, dated 2016).
Converted amounts (≈) assume the structure as drawn. “Also recorded” adds a separate entry of the source.

Columns and labels:
[1] = Peptide binding onto membranes (Trp fluorescence); conditions: neutral POPC vesicles; in words
[2] = physchem; format: physicochemical
How it was run: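 Peptide DMSO stock (6.0-8.0 mM) diluted 100-fold into 10 mM HEPES, pH 7.0, giving 1% DMSO; sonicated 30 min, centrifuged 14,000 rpm for 10 min. Supernatant concentration determined from tryptophan absorbance at 280 nm (ε=22760 M−1 cm-1).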

[3] = K+ release from liposomes, lipid not specified; format: biochemical; conditions: in words
Experimental: With the D-Lys residues incorporated towards the C-terminus, the gA peptide analogs described herein display amphipathic sequences. Since many amphipathic peptides are known to cause membrane damage through a detergent-like mechanism instead of forming specific channels,[19] it was further examined whether it is the case with the gA peptide analogs provided herein. Toward this end, the ion selectivity of gA-3, 4, and 5 was assessed by using liposomes encapsulating K+ and Tb3+ respectively. […] The wild type like channel structure of the D-Lys mutants is further supported by the fact that gA-5 and gA-WT share similar signatures in their circular dichroism spectra (FIG. 11). This exclusive leakage of monovalent cations presents a great advantage of the gA analog peptides described herein in comparison to the majority of AMPs, which often cause catastrophic membrane collapse to release all bacterial cellular content, leading to potential complications of over-stimulated immune response.
The K+ leakage from liposomes was determined by a potassium ion selective electrode (K-ISE, Cole-Parmer, Vernon Hills, Ill.). The electrode was calibrated each day before experiments. A liposome solution in Buffer A (2 mL, 500 μM POPC or POPC/POPG⊃10 mM HEPES, 150 mM KCl, pH 7.0) was stirred at constant speed and peptide at various concentration (1 μL in DMSO) was added accumulatively. Three minutes after each peptide addition, the K+ concentration was measured and reported as the K-ISE potential. At the end of each experiment, gA-WT stock (1 μL, 1 mM) was added to induce 100% K+ leakage. The potential reported by the K-ISE was plotted against peptide concentration after the background noise (caused by DMSO addition) was subtracted and normalized to 0-100%.

[4] = tested on: human red blood cells (hRBCs); assay: K+ leakage from hRBCs (flame atomic emission); format: cell-based
[5] = tested on: Bacillus subtilis (ATCC 663)

## CC(C)C[C@@H](NC(=O)[C@H](C)NC(=O)CNC(=O)[C@@H](NC=O)C(C)C)C(=O)N[C@@H](C)C(=O)N[C@@H](C(=O)N[C@H](C(=O)N[C@@H](C(=O)N[C@@H](Cc1c[nH]c2ccccc12)C(=O)N[C@H](CCCCN)C(=O)N[C@@H](Cc1c[nH]c2ccccc12)C(=O)N[C@H](CCCCN)C(=O)N[C@@H](Cc1c[nH]c2ccccc12)C(=O)N[C@H](CCCCN)C(=O)N[C@@H](Cc1c[nH]c2ccccc12)C(=O)NCCO)C(C)C)C(C)C)C(C)C (racemic) [gA-5, formyl-V-G-A-dL-A-dV-V-dV-W-dK-W-dK-W-dK-W-NHCH2CH2OH]
[1]
  apparent dissociation constant (Kd) / binding: no detectable binding
[2]
  solubility compared with the wild type: three orders of magnitude
  water solubility, fold higher than wild-type Gramicidin A: ~1500 fold
[2]; pH 7
  solubility at 30 mins: ~100 µM (≈ 193 µg/mL)
[3]
  K+ release from LUVs: potent activity in K+ release; also recorded: complete K^+ leakage
[4]
  KC50 (50% K+ ion leakage relative to 1% TritonX-100): >100 µM
  peptide concentration for 50% K+ ion leakage, fold greater than wild-type Gramicidin A: over 10^6 fold
[5]; ATCC 663
  MICs B. Subtilius: 5 µM
[5]; B. subtilis
  MIC relative to wild-type Gramicidin A: equivalent to or ˜2-fold higher
[5]; B. subtilis, in words
  antibacterial activity: highly potent
